Reference: paper PMC12794336, “Unconventional chalcogen-containing azolylidene metal complexes as potential anticancer therapeutics” (Chemical Science, 2025)
Where two headings read alike, the source gives them in different places.

Legend:
[1] = tested on: A2780 ovarian cancer cell line; assay: Cytotoxicity, PrestoBlue assay, A2780; assay type: cell-based, human; settings: read-out: IC50 (µM) after 72 h, A2780
Protocol: (§1) counterpart, A2780cis, were procured from the European Collection of Cell
(§2) (ThermoFisher, USA) base medium supplemented with 10% Foetal Bovine
(§3) Serum (FBS; Sigma, Germany) and 1% of Penicillin-Streptomycin
(§4) (ThermoFisher, USA). Additionally, A2780cis cell line was cultured in the
(§5) drug. The human embryonic kidney cell line, HEK293T, and HeLa cell line were
(§6) obtained from American Type Culture Collection (ATCC, USA) and were cultured
(§7) in DMEM GlutaMAX (ThermoFisher, USA) base medium, supplemented with
(§8) 10% FBS and 1% of Penicillin-Streptomycin. All cell lines were maintained in a
(§9) humidified incubator at37 °C and 5% CO2.
(§10) 4.2. Cytotoxicity studies
(§11) cells/mL (A2780cis and HEK293T) was dispensed into flat bottom 96-well plates
(§12) and allowed to attach overnight. On the next day, 10 mM stock solutions of the
(§13) tested compounds were prepared in DMSO, then diluted with media to the final
(§14) concentration range of 0 - 100 µM and applied to the cells; 0.1% DMSO final
(§15) solution and 10 µM final concentration gambogic acid were used as negative and
(§16) positive controls, respectively. After 72 h incubation in a humidified incubator
(§17) under 5% CO2 at 37 °C, PrestoBlue™ cell viability reagent (Cat. No. A13262,
(§18) Invitrogen, USA) was added to cultures at a 1:10 ratio according to the
(§19) manufacturer instructions, and samples were incubated for 1.5 h. Fluorescence
(§20) at 560/590 nm was detected with Tecan Infinite 500 microplate reader (Tecan,
(§21) Switzerland). Three wells were assessed for each concentration of the tested
(§22) compounds and three independent experiments were performed. Non-linear
(§23) regression and IC50 value calculation were performed in GraphPad Prism 9 using
(§24) the build-in function “Dose response- Inhibition”.

[2] = tested on: A2780cis cells with acquired resistance to cisplatin; assay: Cytotoxicity, PrestoBlue assay, A2780cis; assay type: cell-based, human; settings: for IC50: 72 h, read-out: IC50 (µM) after 72 h, A2780cis; for Resistance index (RI): RI = IC50 A2780cis/IC50 A2780
Protocol: as §1, §2, §3, §4, §5, §6, §7, §8, §9, §10, §11, §12, §13, §14, §15, §16, §17, §18, §19, §20, §21, §22, §23, §24

[3] = tested on: non-cancerous human embryonic kidney HEK293T cells; assay: Cytotoxicity, PrestoBlue assay, HEK293T; assay type: cell-based; settings: 72 h, read-out: IC50 (µM) after 72 h, HEK293T
Protocol: as §1, §2, §3, §4, §5, §6, §7, §8, §9, §10, §11, §12, §13, §14, §15, §16, §17, §18, §19, §20, §21, §22, §23, §24

[4] = tested on: ovarian cancer cell lines (A2780 and A2780cis); assay: Cytotoxicity stated jointly for both ovarian cancer cell lines
Protocol: as §1, §2, §3, §4, §5, §6, §7, §8, §9, §10, §11, §12, §13, §14, §15, §16, §17, §18, §19, §20, §21, §22, §23, §24

[5] = n-octanol/water partition coefficient; assay type: physicochemical
Text: Resistance index (RI) ^a, and n-octanol/water partition coefficients (logPOW) | column: logPOW

[6] = tested on: DNA synthesis in HeLa cells; assay: EdU incorporation assay, fluorescence cell microscopy; assay type: cell-based; settings: for Degree of inhibition of DNA synthesis: 3 µM, 24 h, gemcitabine = 100%, DMSO = 0%
Text: The inhibitory effect of Pt1^Y and Pt2^Y (Y = NR, O, S) on DNA synthesis during cell proliferation was quantified in cellulo using an EdU incorporation assay and fluorescence cell microscopy (Fig. 6 and SI Fig. 12).[70] Gemcitabine, a clinically-approved DNA synthesis inhibitor,[71] was used as a positive control (100% inhibition), and the cells treated with an equivalent amount of DMSO served as a negative control (“untreated”, 0% inhibition). Cisplatin and transplatin were included as references. DNA synthesis was blocked to various degrees in the cells treated with the different platinum complexes. […]
4.4. EdU incorporation assay
EdU incorporation assay was performed using a Click-iT EdU Imaging kit
(C10086, Thermo Fisher, Switzerland) according to the manufacturer’s protocol.
HeLa cells were seeded into a black 96-well PhenoPlate with optically clear flat-bottom (Revity 6055302) at a concentration of 4000 cells per well. After 24 h, the cells were treated with the tested compounds Pt1Y and Pt2Y (Y = NR, O, S), […]
of the compounds in HeLA cells). Gemcitabine (1 and 3 µM) and an equal volume of DMSO were used as positive and negative control, respectively. Each condition was tested in triplicate. The assay was performed after an incubation of 24 h. The cells were additionally stained by Hoechst 33342 diluted in PBS with 3% BSA. The fluorescent signal was detected with the widefield INCell 2200 microscope (GE health care, USA) using a 10X/0.45 objective. The DAPI channel was used for Hoechst 33342 emitting blue (λex = 390/ 18 nm, λem = 432.5/ 48 nm), and the FITC channel for Edu-AlexaFluor-488 (λex = 475/ 28 nm, λem = 511.5/23 nm) emitting in green. For each well, 9 fields of view were captured. Image analysis was performed using CellProfiler (v4.2.5), CellProfiler Analyst (v3.0.4) and FIJI (v1.54k) software. Images were first pre -processed (correction for flat - field illumination using a Gaussian-based smoothing filter and rescaled for segmentation). All cells were segmented using the minimum cross -entropy thresholding method on an intermediate image composed of the addition of 2 channels imaged. For all cells, featur es of size, shape, and fluorescence intensities were extracted. Cells were then either classified directly as live or dead based on a combination of their size and EdU staining intensity or classified automatically as live or dead using a machine learning -based random forest classifier model in a multiparametric approach. The readout used is the average percentage of live or dead cells in each condition and the values are normalised to gemcitabine at 3 μM and DMSO (untreated) with the corresponding volume at […]

[7] = Homo sapiens, A2780, 72 h, PrestoBlue
[8] = Homo sapiens, A2780cis, PrestoBlue
[9] = Homo sapiens, HEK-293T, PrestoBlue

SMILES	IC50 [1, 7] [µM]	IC50 [2, 8] [µM]	IC50 [3, 9] [µM]	IC50 ([1]; 72 h, PrestoBlue) [µM]	IC50 ([2]; PrestoBlue) [µM]	Resistance index (RI) [2]	IC50 ([3]; PrestoBlue) [µM]	further results
CCn1c[n+](CC)c2ccccc21 [3NEt·HI]	> 100	> 100	> 100	–	–	–	–	–
C[n+]1ccoc1 [1O·HI]	11.8	39.8 ± 2.6	59.1 ± 16.6	–	–	–	–	–
c1ccc(Cn2c[n+](Cc3ccccc3)c3ccccc32)cc1 [4NBn·HBr]	15.2 ± 12.1	24.4 ± 11.7	35.2 ± 26.3	–	–	–	–	–
[I][Pt-2]([I])([c]1occ[n+]1Cc1ccccc1)[n+]1ccccc1 [Pt2^O]	–	–	–	4 ± 1	5 ± 2	1.5	6 ± 2	IC50 ([1]; 72 h, PrestoBlue, listed as Pt2^S): 6 ± 1 µM; IC50 ([2]; PrestoBlue, listed as Pt2^S): 12 ± 3 µM; Resistance index (RI) ([2]; listed as Pt2^S): 2.2; IC50 ([3]; PrestoBlue, listed as Pt2^S): 9 ± 2 µM; IC50 ([4]; read-out: Cytotoxicity (IC50) in the ovarian cancer cell lines, A2780 and A2780cis together, approximate text values, 72 h): ~5 µM; IC50 ([4]; read-out: Cytotoxicity (IC50) in the ovarian cancer cell lines, A2780 and A2780cis together, approximate text values, 72 h, listed as Pt2^S): ~8 µM; logPOW ([5]; n-octanol/water): 1.6 ± 0.2; logPOW ([5]; n-octanol/water, listed as Pt2^S): 1.8 ± 1.0; Degree of inhibition of DNA synthesis [6]: 37%; Degree of inhibition of DNA synthesis ([6]; listed as Pt2^S): 24%
N.N.[Cl][Pt+2][Cl] [transplatin, reference compound]	–	–	–	–	–	–	–	Degree of inhibition of DNA synthesis [6]: 23%
c1ccc(C[n+]2csc3ccccc32)cc1 [4S·HBr]	34.7	37.9 ± 1.7	36.8 ± 19.3	–	–	–	–	–
C[n+]1ccsc1 [1S·HI]	> 100	> 100	> 100	–	–	–	–	–
Cn1cc[n+](C)[c]1[Pt-2]([I])([I])[n+]1ccccc1 [Pt1^NMe]	–	–	–	2.9 ± 0.2	2.8 ± 0.7	1.0	4 ± 1	IC50 [4]: ~3 µM; logPOW [5]: 1.3 ± 0.6; Degree of inhibition of DNA synthesis [6]: 29%
c1ccc(C[n+]2c[se]c3ccccc32)cc1 [4Se·HBr]	–	–	–	–	–	–	–	IC50 ([1]; Homo sapiens, A2780, 72 h): 13.5 ± 5.9 µM; IC50 ([2]; Homo sapiens, A2780cis): 28.4 ± 8 µM; IC50 ([3]; Homo sapiens, HEK-293T): 20.5 ± 14.2 µM
c1ccc(C[n+]2ccoc2)cc1 [2O·HBr]	> 100	> 100	> 100	–	–	–	–	–
CC[n+]1coc2ccccc21 [3O·HI]	> 100	> 100	> 100	–	–	–	–	–
C[n+]1cco[c]1[Pt-2]([I])([I])[n+]1ccccc1 [Pt1^O]	–	–	–	8 ± 2	16 ± 4	2.0	18 ± 6	IC50 ([1]; 72 h, PrestoBlue, listed as Pt1^S): 13 ± 8 µM; IC50 ([2]; PrestoBlue, listed as Pt1^S): 30 ± 29 µM; Resistance index (RI) ([2]; listed as Pt1^S): 2.4; IC50 ([3]; PrestoBlue, listed as Pt1^S): 47 ± 23 µM; Degree of inhibition of DNA synthesis [6]: 38%; Degree of inhibition of DNA synthesis ([6]; listed as Pt1^S): 6%
CC[n+]1csc2ccccc21 [3S·HI]	> 100	> 100	> 100	–	–	–	–	–
CC[n+]1[c]([Au-][I])oc2ccccc21 [Au3^O]	–	–	–	0.2 ± 0.2	5 ± 2	31.5	1 ± 0.1	IC50 ([1]; 72 h, PrestoBlue, listed as Au3^S): 0.2 ± 0.1 µM; IC50 ([1]; 72 h, PrestoBlue, listed as Au3^Se): 0.1 ± 0.1 µM; IC50 ([2]; PrestoBlue, listed as Au3^S): 6.4 ± 0.4 µM; IC50 ([2]; PrestoBlue, listed as Au3^Se): 0.2 ± 0.1 µM; Resistance index (RI) ([2]; listed as Au3^S): 29.2; Resistance index (RI) ([2]; listed as Au3^Se): 3.4; IC50 ([3]; PrestoBlue, listed as Au3^S): 1.9 ± 0.3 µM; IC50 ([3]; PrestoBlue, listed as Au3^Se): 0.1 ± 0.1 µM; logPOW ([5]; n-octanol/water): 1.2 ± 0.4; logPOW ([5]; n-octanol/water, listed as Au3^S): 1.5 ± 0.1; logPOW ([5]; n-octanol/water, listed as Au3^Se): 1.4 ± 0.3
CC(=O)OC[C@H]1O[C@@H]([S-])[C@H](OC(C)=O)[C@@H](OC(C)=O)[C@@H]1OC(C)=O.CCP(CC)CC.[Au+] [Auranofin, auranofin, reference compound]	–	–	–	0.1 ± 0.1	1.9 ± 0.4	20.6	0.4 ± 0.1	–
[I][Pt-2]([I])([c]1n(Cc2ccccc2)cc[n+]1Cc1ccccc1)[n+]1ccccc1 [Pt2^NBn]	–	–	–	0.6 ± 0.2	1.2 ± 0.1	1.9	1.4 ± 0.1	IC50 [4]: ~1 µM; logPOW [5]: 2.1 ± 0.8; Degree of inhibition of DNA synthesis [6]: 100%
Cn1cc[n+](C)c1 [1NMe·HI]	> 100	> 100	> 100	–	–	–	–	–
c1ccc(C[n+]2ccsc2)cc1 [2S·HBr]	58.6	73.5	> 100	–	–	–	–	–
c1ccc(Cn2cc[n+](Cc3ccccc3)c2)cc1 [2NBn·HBr]	37.4	44.1	51.1 ± 12.4	–	–	–	–	–
Nc1ccn([C@@H]2O[C@H](CO)[C@@H](O)C2(F)F)c(=O)n1 [gemcitabine, reference compound]	–	–	–	–	–	–	–	inhibition at 1 µM ([6]; Homo sapiens, gemcitabine 1 µM, set as 100%, read-out: Degree of inhibition of DNA synthesis (positive control)): 100%
N.N.[Cl][Pt][Cl] [Cisplatin, cisplatin, reference compound]	–	–	–	0.4 ± 0.1	8 ± 5	–	1.5 ± 0.2	IC50 ([2]; PrestoBlue, listed as cisplatin): 8.4 ± 4.6 µM; Degree of inhibition of DNA synthesis [6]: 62%
CCn1[c]([Au-][I])[n+](CC)c2ccccc21 [Au3^NEt]	–	–	–	0.6 ± 0.2	2.7 ± 0.1	4.9	2.1 ± 0.6	logPOW ([5]; n-octanol/water): 1.6 ± 1.1
